Non-standard residues stand in square brackets, D forms with d. Residues, ends and D or L forms follow the SMILES beside them. *: point of attachment. Desaminotyrosyl = O=C(CCc1ccc(O)cc1)*; NMeY = CN[C@@H](Cc1ccc(O)cc1)C(=O)O; Agmatine = N=C(N)NCCCCN*; NMeA = CN[C@@H](C)C(=O)O; Nle = CCCC[C@H](N)C(=O)O; Orn = NCCC[C@H](N)C(=O)O; Abu = CC[C@H](N)C(=O)O; Aoc = NCCCCCCCC(=O)O
Target: T1, GHRH receptor (human pituitary membrane homogenates) (Homo sapiens, UniProt Q02643)
T1 sequence (Q02643 23-423): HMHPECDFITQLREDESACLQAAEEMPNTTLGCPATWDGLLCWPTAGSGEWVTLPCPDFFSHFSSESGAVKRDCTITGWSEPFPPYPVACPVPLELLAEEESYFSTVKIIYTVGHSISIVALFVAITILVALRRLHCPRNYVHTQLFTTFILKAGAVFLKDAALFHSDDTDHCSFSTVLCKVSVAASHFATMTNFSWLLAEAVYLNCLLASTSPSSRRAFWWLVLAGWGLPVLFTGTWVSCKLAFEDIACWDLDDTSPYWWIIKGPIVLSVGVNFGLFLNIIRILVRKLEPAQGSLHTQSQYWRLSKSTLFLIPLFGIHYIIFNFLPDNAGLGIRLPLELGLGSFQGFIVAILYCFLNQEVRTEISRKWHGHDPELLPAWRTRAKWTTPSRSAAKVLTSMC
Assay: GHRH receptor binding, ligand competition with 125I-labeled JV-1-42 (Table 7)
Set-up: Normal human pituitaries were purchased from the National Hormone and Peptide Program; tissue National Hormone and Peptide Program (A. F. Parlow, Harbor-UCLA Medical Center, Torrance, Calif.); host or cells: normal human pituitary, membrane fraction / homogenate
Settings: JI-38 = 1

Point of comparison: `CCCC[C@H](NC(=O)[C@@H](NC(=O)[C@H](CC(=O)O)NC(=O)[C@H](CCC(N)=O)NC(=O)[C@H](CC(C)C)NC(=O)[C@H](CC(C)C)NC(=O)[C@H](CCCN)NC(=O)[C@H](CCCNC(=N)N)NC(=O)[C@H](C)NC(=O)[C@H](CO)NC(=O)[C@H](CC(C)C)NC(=O)[C@H](CCC(N)=O)NC(=O)[C@H](CC)NC(=O)[C@H](CC(C)C)NC(=O)[C@@H](NC(=O)[C@H](CCCN)NC(=O)[C@H](CCCNC(=N)N)NC(=O)[C@H](Cc1ccc(O)cc1)NC(=O)[C@H](CO)NC(=O)[C@H](C)N(C)C(=O)[C@@H](NC(=O)[C@H](Cc1ccccc1)NC(=O)[C@@H](NC(=O)[C@H](C)NC(=O)[C@H](CC(=O)O)NC(=O)[C@@H](C)NC(=O)CCc1ccc(O)cc1)[C@@H](C)CC)[C@@H](C)O)C(C)C)[C@@H](C)CC)C(=O)N[C@@H](CC(=O)O)C(=O)NCCCCNC(=N)N` [Peptide P-20357, [Dat^1, D-Ala^2, N—Me-Ala^8, Orn^12, Abu^15, Orn^21, Nle^27, Asp^28, Agm^29]hGHRH(1-29)] (Desaminotyrosyl-[dA]DAIFT[NMeA]SYR[Orn]VL[Abu]QLSAR[Orn]LLQDI[Nle]D-Agmatine), “Relative affinitiy (Binding potency) vs JI-38” value 5.06. Against it:
- CCCC[C@H](NC(=O)[C@@H](NC(=O)[C@H](CC(=O)O)NC(=O)[C@H](CCC(N)=O)NC(=O)[C@H](CC(C)C)NC(=O)[C@H](CC(C)C)NC(=O)[C@H](CCCN)NC(=O)[C@H](CCCNC(=N)N)NC(=O)[C@H](C)NC(=O)[C@H](CO)NC(=O)[C@H](CC(C)C)NC(=O)[C@H](CCC(N)=O)NC(=O)[C@H](CC)NC(=O)[C@H](CC(C)C)NC(=O)[C@@H](NC(=O)[C@H](CCCN)NC(=O)[C@H](CCCNC(=N)N)NC(=O)[C@H](Cc1ccc(O)cc1)NC(=O)[C@H](CO)NC(=O)[C@H](CC(N)=O)NC(=O)[C@@H](NC(=O)[C@H](Cc1ccccc1)NC(=O)[C@@H](NC(=O)[C@H](C)NC(=O)[C@H](CC(=O)O)NC(=O)[C@@H](C)NC(=O)[C@H](Cc1ccc(O)cc1)NC)[C@@H](C)CC)[C@@H](C)O)C(C)C)[C@@H](C)CC)C(=O)N[C@@H](CC(=O)O)C(=O)N[C@@H](CCCNC(=N)N)C(=O)NCCCCCCCC(N)=O [Peptide P-21303, [N—Me-Tyr^1, D-Ala^2, Orn^12, Abu^15, Orn^21, Nle^27, Asp^28, Amc^30]hGHRH(1-30)NH2] (H-[NMeY][dA]DAIFTNSYR[Orn]VL[Abu]QLSAR[Orn]LLQDI[Nle]DR[Aoc]-NH2) — lower, 2.32
- CCCC[C@H](NC(=O)[C@@H](NC(=O)[C@H](CC(=O)O)NC(=O)[C@H](CCC(N)=O)NC(=O)[C@H](CC(C)C)NC(=O)[C@H](CC(C)C)NC(=O)[C@H](CCCN)NC(=O)[C@H](CCCNC(=N)N)NC(=O)[C@H](C)NC(=O)[C@H](CO)NC(=O)[C@H](CC(C)C)NC(=O)[C@H](CCC(N)=O)NC(=O)[C@H](CC)NC(=O)[C@H](CC(C)C)NC(=O)[C@@H](NC(=O)[C@H](CCCN)NC(=O)[C@H](CCCNC(=N)N)NC(=O)[C@H](Cc1ccc(O)cc1)NC(=O)[C@H](CO)NC(=O)[C@H](CCC(N)=O)NC(=O)[C@@H](NC(=O)[C@H](Cc1ccccc1)NC(=O)[C@@H](NC(=O)[C@H](C)NC(=O)[C@H](CC(=O)O)NC(=O)[C@H](C)NC(=O)[C@H](Cc1ccc(O)cc1)NC)[C@@H](C)CC)[C@@H](C)O)C(C)C)[C@@H](C)CC)C(=O)N[C@@H](CC(=O)O)C(=O)N[C@@H](CCCNC(=N)N)C(=O)NC [Peptide P-27406, [N—Me-Tyr^1, Gln^8, Orn^12, Abu^15, Orn^21, Nle^27, Asp^28]hGHRH(1-29)NH—CH3] (H-[NMeY]ADAIFTQSYR[Orn]VL[Abu]QLSAR[Orn]LLQDI[Nle]DR-NHMe) — higher, 14.5
- CCCC[C@H](NC(=O)[C@@H](NC(=O)[C@H](CC(=O)O)NC(=O)[C@H](CCC(N)=O)NC(=O)[C@H](CC(C)C)NC(=O)[C@H](CC(C)C)NC(=O)[C@H](CCCN)NC(=O)[C@H](CCCNC(=N)N)NC(=O)[C@H](C)NC(=O)[C@H](CO)NC(=O)[C@H](CC(C)C)NC(=O)[C@H](CCC(N)=O)NC(=O)[C@H](CC)NC(=O)[C@H](CC(C)C)NC(=O)[C@@H](NC(=O)[C@H](CCCN)NC(=O)[C@H](CCCNC(=N)N)NC(=O)[C@H](Cc1ccc(O)cc1)NC(=O)[C@H](CO)NC(=O)[C@H](CCC(N)=O)NC(=O)[C@@H](NC(=O)[C@H](Cc1ccccc1)NC(=O)[C@@H](NC(=O)[C@H](C)NC(=O)[C@H](CC(=O)O)NC(=O)[C@H](C)NC(=O)[C@H](Cc1ccc(O)cc1)NC)[C@@H](C)CC)[C@@H](C)O)C(C)C)[C@@H](C)CC)C(=O)N[C@@H](CO)C(=O)N[C@@H](CCCNC(=N)N)C(=O)NC [Peptide P-27405, [N—Me-Tyr^1, Gln^8, Orn^12, Abu^15, Orn^21, Nle^27]hGHRH(1-29)NH—CH3] (H-[NMeY]ADAIFTQSYR[Orn]VL[Abu]QLSAR[Orn]LLQDI[Nle]SR-NHMe) — lower, 4.03
- CCCC[C@H](NC(=O)[C@@H](NC(=O)[C@H](CC(=O)O)NC(=O)[C@H](CCC(N)=O)NC(=O)[C@H](CC(C)C)NC(=O)[C@H](CC(C)C)NC(=O)[C@H](CCCN)NC(=O)[C@H](CCCNC(=N)N)NC(=O)[C@H](C)NC(=O)[C@H](CO)NC(=O)[C@H](CC(C)C)NC(=O)[C@H](CCC(N)=O)NC(=O)[C@H](CC)NC(=O)[C@H](CC(C)C)NC(=O)[C@@H](NC(=O)[C@H](CCCN)NC(=O)[C@H](CCCNC(=N)N)NC(=O)[C@H](Cc1ccc(O)cc1)NC(=O)[C@H](CO)NC(=O)[C@H](CCC(N)=O)NC(=O)[C@@H](NC(=O)[C@H](Cc1ccccc1)NC(=O)[C@@H](NC(=O)[C@H](C)NC(=O)[C@H](CC(=O)O)NC(=O)[C@@H](C)NC(=O)[C@H](Cc1ccc(O)cc1)NC)[C@@H](C)CC)[C@@H](C)O)C(C)C)[C@@H](C)CC)C(=O)N[C@@H](CC(=O)O)C(=O)N[C@@H](CCCNC(=N)N)C(=O)NCC [Peptide P-28420, [N—Me-Tyr^1, D-Ala^2, Gln^8, Orn^12, Abu^15, Orn^21, Nle^27, Asp^28]hGHRH(1-29)NH—CH2—CH3] (H-[NMeY][dA]DAIFTQSYR[Orn]VL[Abu]QLSAR[Orn]LLQDI[Nle]DR-NHEt) — higher, 8.37
- CCCC[C@H](NC(=O)[C@@H](NC(=O)[C@H](CC(=O)O)NC(=O)[C@H](CCC(N)=O)NC(=O)[C@H](CC(C)C)NC(=O)[C@H](CC(C)C)NC(=O)[C@H](CCCN)NC(=O)[C@H](CCCNC(=N)N)NC(=O)[C@H](C)NC(=O)[C@H](CO)NC(=O)[C@H](CC(C)C)NC(=O)[C@H](CCC(N)=O)NC(=O)[C@H](CC)NC(=O)[C@H](CC(C)C)NC(=O)[C@@H](NC(=O)[C@H](CCCN)NC(=O)[C@H](CCCNC(=N)N)NC(=O)[C@H](Cc1ccc(O)cc1)NC(=O)[C@H](CO)NC(=O)[C@H](CC(N)=O)NC(=O)[C@@H](NC(=O)[C@H](Cc1ccccc1)NC(=O)[C@@H](NC(=O)[C@H](C)NC(=O)[C@H](CC(=O)O)NC(=O)[C@H](C)NC(=O)[C@H](Cc1ccc(O)cc1)NC)[C@@H](C)CC)[C@@H](C)O)C(C)C)[C@@H](C)CC)C(=O)N[C@@H](CC(=O)O)C(=O)N[C@@H](CCCNC(=N)N)C(=O)NCCCCCCCC(N)=O [Peptide P-21301, [N—Me-Tyr^1, Orn^12, Abu^15, Orn^21, Nle^27, Asp^28, Amc^30]hGHRH(1-30)NH2] (H-[NMeY]ADAIFTNSYR[Orn]VL[Abu]QLSAR[Orn]LLQDI[Nle]DR[Aoc]-NH2) — lower, 1.45
- CCCC[C@H](NC(=O)[C@@H](NC(=O)[C@H](CC(=O)O)NC(=O)[C@H](CCC(N)=O)NC(=O)[C@H](CC(C)C)NC(=O)[C@H](CC(C)C)NC(=O)[C@H](CCCN)NC(=O)[C@H](CCCNC(=N)N)NC(=O)[C@H](C)NC(=O)[C@H](CO)NC(=O)[C@H](CC(C)C)NC(=O)[C@H](CCC(N)=O)NC(=O)[C@H](CC)NC(=O)[C@H](CC(C)C)NC(=O)[C@@H](NC(=O)[C@H](CCCN)NC(=O)[C@H](CCCNC(=N)N)NC(=O)[C@H](Cc1ccc(O)cc1)NC(=O)[C@H](CO)NC(=O)[C@H](CCC(N)=O)NC(=O)[C@@H](NC(=O)[C@H](Cc1ccccc1)NC(=O)[C@@H](NC(=O)[C@H](C)NC(=O)[C@H](CC(=O)O)NC(=O)[C@@H](C)NC(=O)CCc1ccc(O)cc1)[C@@H](C)CC)[C@@H](C)O)C(C)C)[C@@H](C)CC)C(=O)N[C@@H](CC(=O)O)C(=O)N[C@H](CCCNC(=N)N)C(=O)NC [Peptide P-27401, [Dat^1, D-Ala^2, Gln^8, Orn^12, Abu^15, Orn^21, Nle^27, Asp^28, D-Arg^29]hGHRH(1-29)NH—CH3] (Desaminotyrosyl-[dA]DAIFTQSYR[Orn]VL[Abu]QLSAR[Orn]LLQDI[Nle]D[dR]-NHMe) — lower, 1.59
- CCCC[C@H](NC(=O)[C@@H](NC(=O)[C@H](CC(=O)O)NC(=O)[C@H](CCC(N)=O)NC(=O)[C@H](CC(C)C)NC(=O)[C@H](CC(C)C)NC(=O)[C@H](CCCN)NC(=O)[C@H](CCCNC(=N)N)NC(=O)[C@H](C)NC(=O)[C@H](CO)NC(=O)[C@H](CC(C)C)NC(=O)[C@H](CCC(N)=O)NC(=O)[C@H](CC)NC(=O)[C@H](CC(C)C)NC(=O)[C@@H](NC(=O)[C@H](CCCN)NC(=O)[C@H](CCCNC(=N)N)NC(=O)[C@H](Cc1ccc(O)cc1)NC(=O)[C@H](CO)NC(=O)[C@H](CCC(N)=O)NC(=O)[C@@H](NC(=O)[C@H](Cc1ccccc1)NC(=O)[C@@H](NC(=O)[C@H](C)NC(=O)[C@H](CC(=O)O)NC(=O)[C@@H](C)NC(=O)[C@H](Cc1ccc(O)cc1)N(C)C(C)=O)[C@@H](C)CC)[C@@H](C)O)C(C)C)[C@@H](C)CC)C(=O)N[C@@H](CC(=O)O)C(=O)NCCCCNC(=N)N [Peptide P-20351, [Ac—N—Me-Tyr^1, D-Ala^2, Gln^8, Orn^12, Abu^15, Orn^21, Nle^27, Asp^28, Agm^29]hGHRH(1-29)] (Ac-[NMeY][dA]DAIFTQSYR[Orn]VL[Abu]QLSAR[Orn]LLQDI[Nle]D-Agmatine) — lower, 1.26

Source: patent US9393271B2, “GHRH agonists for islet cell transplantation and function and the treatment of diabetes” (UNIVERSITY OF MIAMI, priority 2012, dated 2016)
